Measurements as given in patent US9908912B2, “Triclosan derivatives and uses thereof” (priority 2012, dated 2018).
In brackets after ≈: the same amount, converted by molar mass.

What was measured:
[1] = test system: Staph. epidermidis; experiment: MIC in Nutrient Broth No. 2; assay type: cell-based, Staphylococcus epidermidis; details: 3 strains, Nutrient Broth No. 2
Method: (§1) Bacteria species as indicated in Table 1 were incubated for approximately 24 hours at 37° C.
(§2) The tests were repeated with the addition of inducers. Methyl glycoside was the main inducer used, but other suitable inducers include isopropyl-β-D-thiogalactopyranoside, p-nitrophenyl-α-L-arabinopyranoside and p-nitrophenyl-β-D-xylopyranoside. Concentration of inducer in all cases was 100 μg/ml.

[2] = test system: Str. pyogenes; experiment: MIC in Nutrient Agar; assay type: cell-based, Streptococcus pyogenes; details: Nutrient Agar containing 0.1 μg/ml of inducer; 37° C., 24 hours
Method: (§3) The triclosan-glycosides were added to Nutrient Agar (Oxoid CM0003; Thermofisher Scientific) and organisms were transferred onto the plates surface using a multi-point inoculation device (Oxoid Cathra, Thermofisher Scientific). The latter is essentially a metal plate containing a number of needles. Each needle tip (usually 36 per plate) dips into an organism suspension (in phosphate buffered saline; PBS) and the needles are then moved over the agar plate and lowered onto its surface. In this way the growth of colonies of up to 36 different organisms can be observed on one plate.
(§4) Nutrient Agar No. 2 was prepared according to the manufacturers instructions, autoclaved and cooled to 50° C. Test compounds were then added as filter sterilised solutions (50:50 deionised water:ethanol), to give final concentrations from 256 μg/ml to 0 μg/ml in doubling dilutions. […] The mixtures were swirled then four plates (25 ml molten agar) were poured for each concentration. Plates were dried in a laminar flow cabinet then inoculated with overnight cultures of organisms that had been decimally diluted twice in sterile saline solution (approximately 10^7 cfu/ml) using a multi-point inoculator. Plates were then incubated at 37° C. for 24 hours. MICs were determined as the concentration at which no growth was observed.

[3] = test system: E. coli; experiment: MIC in Nutrient Agar; assay type: cell-based, Escherichia coli; details: 8 strains; Nutrient Agar containing 0.1 μg/ml of inducer; 37° C., 24 hours
Method: as §3, §4

[4] = test system: Ps. Aeruginosa ATCC 27853; experiment: MIC in Nutrient Broth No. 2; assay type: cell-based; details: Nutrient Broth No. 2
Method: as §1, §2

[5] = test system: Bacillus cereus ATCC 14579; experiment: MIC in Nutrient Broth No. 2; assay type: cell-based; details: Nutrient Broth No. 2
Method: as §1, §2

[6] = test system: Bacillus subtilis NCTC 10073; experiment: MIC in Nutrient Broth No. 2; assay type: cell-based; details: Nutrient Broth No. 2
Method: as §1, §2

[7] = test system: Serratia marcescens OCC 217; experiment: MIC in Nutrient Broth No. 2; assay type: cell-based; details: Nutrient Broth No. 2
Method: as §1, §2

[8] = test system: Hafnia alvei ATCC 13337; experiment: MIC in Nutrient Broth No. 2; assay type: cell-based; details: Nutrient Broth No. 2
Method: as §1, §2

[9] = test system: Enterobacter aerogenes ATCC 13048; experiment: MIC in Nutrient Broth No. 2; assay type: cell-based; details: Nutrient Broth No. 2
Method: as §1, §2

[10] = test system: Proteus vulgaris OCC 195; experiment: MIC in Nutrient Broth No. 2; assay type: cell-based; details: Nutrient Broth No. 2
Method: as §1, §2

[11] = test system: Aeromonas hydrophila OCC 778; experiment: MIC in Nutrient Broth No. 2; assay type: cell-based; details: Nutrient Broth No. 2
Method: as §1, §2

[12] = test system: Citrobacter freundii OCC 851; experiment: MIC in Nutrient Broth No. 2; assay type: cell-based; details: Nutrient Broth No. 2
Method: as §1, §2

[13] = test system: Enterococcus faecalis ATCC 29212; experiment: MIC in Nutrient Broth No. 2; assay type: cell-based; details: Nutrient Broth No. 2
Method: as §1, §2

[14] = test system: Escherichia coli; experiment: MIC in Nutrient Broth No. 2; assay type: cell-based; details: 8 strains, Nutrient Broth No. 2
Method: as §1, §2

[15] = test system: Proteus mirabilis ATCC 12453; experiment: MIC in Nutrient Broth No. 2; assay type: cell-based; details: Nutrient Broth No. 2
Method: as §1, §2

[16] = test system: Salmonella; experiment: MIC in Nutrient Broth No. 2; assay type: cell-based; details: 11 strains, Nutrient Broth No. 2
Method: as §1, §2

[17] = test system: Enterococcus faecium ATCC 19434; experiment: MIC in Nutrient Broth No. 2; assay type: cell-based; details: Nutrient Broth No. 2
Method: as §1, §2

[18] = test system: S. epidermidis; experiment: MIC in Nutrient Agar; assay type: cell-based, Staphylococcus epidermidis; details: 3 strains; Nutrient Agar containing 0.1 μg/ml of inducer; 37° C., 24 hours
Method: as §3, §4

[19] = test system: E. hermanii; experiment: MIC in Nutrient Agar; assay type: cell-based, Escherichia hermanii; details: Nutrient Agar containing 0.1 μg/ml of inducer; 37° C., 24 hours
Method: as §3, §4

[20] = test system: Bacteria species as indicated in Table 1; experiment: MIC in Nutrient Broth No. 2 (over organisms of Table 1); assay type: cell-based; details: all strains of Citrobacter freundii, Enterobacter cloacae, Escherichia coli, Escherichia hermanii, Hafnia alvei, Klebsiella, Proteus, Salmonella, Staphylococcus
Method: as §1, §2

| Structure (SMILES) | MIC ([1]; with inducer 100 μg/ml) | MIC ([1]; without inducer) | MIC [2] | MIC [3] | MIC ([4]; with inducer 100 μg/ml) | MIC ([4]; without inducer) | MIC ([5]; with inducer 100 μg/ml) | MIC ([5]; without inducer) | MIC ([6]; with inducer 100 μg/ml) | MIC ([6]; without inducer) | MIC ([7]; with inducer 100 μg/ml) | MIC ([7]; without inducer) | MIC ([8]; with inducer 100 μg/ml) | MIC ([8]; without inducer) | MIC ([9]; with inducer 100 μg/ml) | MIC ([9]; without inducer) | MIC ([10]; with inducer 100 μg/ml) | MIC ([10]; without inducer) | MIC ([11]; with inducer 100 μg/ml) | MIC ([11]; without inducer) | other results |
| --- | --- | --- | --- | --- | --- | --- | --- | --- | --- | --- | --- | --- | --- | --- | --- | --- | --- | --- | --- | --- | --- |
| OC[C@H]1O[C@H](Oc2cc(Cl)ccc2Oc2ccc(Cl)cc2Cl)[C@H](O)[C@@H](O)[C@@H]1O [α-D-Glucoside, triclosan-α-D-glucopyranoside] | 1 µg/mL (≈ 2.21 µM) | 1 µg/mL (≈ 2.21 µM) | 64 µg/mL (≈ 142 µM) | 0.5 to 4 µg/mL | >256 µg/mL | >256 µg/mL | 128 µg/mL (≈ 283 µM) | 128 µg/mL (≈ 283 µM) | 32 µg/mL (≈ 70.8 µM) | 32 µg/mL (≈ 70.8 µM) | >256 µg/mL | >256 µg/mL | 1 µg/mL (≈ 2.21 µM) | 1 µg/mL (≈ 2.21 µM) | 4 µg/mL (≈ 8.86 µM) | 8 µg/mL (≈ 17.7 µM) | 4 µg/mL (≈ 8.86 µM) | 4 µg/mL (≈ 8.86 µM) | 256 µg/mL (≈ 567 µM) | 256 µg/mL (≈ 567 µM) | MIC ([12]; with inducer 100 μg/ml): 4 µg/mL (≈ 8.86 µM); MIC ([12]; without inducer): 4 µg/mL (≈ 8.86 µM); MIC ([13]; with inducer 100 μg/ml): 128 µg/mL (≈ 283 µM); MIC ([13]; without inducer): 128 µg/mL (≈ 283 µM); MIC ([14]; with inducer 100 μg/ml): 1 to 4 µg/mL; MIC ([14]; without inducer): 2 to 8 µg/mL; MIC ([15]; with inducer 100 μg/ml): 2 µg/mL (≈ 4.43 µM); MIC ([15]; without inducer): 2 µg/mL (≈ 4.43 µM); MIC ([16]; with inducer 100 μg/ml): 1 to 4 µg/mL; MIC ([16]; without inducer): 2 to 8 µg/mL; MIC ([17]; with inducer 100 μg/ml): 256 µg/mL (≈ 567 µM); MIC ([17]; without inducer): 256 µg/mL (≈ 567 µM); MIC [18]: 0.5 to 1 µg/mL; MIC [19]: 1 µg/mL (≈ 2.21 µM) |
| OC[C@H]1O[C@H](Oc2cc(Cl)ccc2Oc2ccc(Cl)cc2Cl)[C@@H](O)[C@@H](O)[C@@H]1O [α-D-Mannoside, triclosan-α-D-mannopyranoside] | 4 to 8 µg/mL | 4 to 8 µg/mL | 64 µg/mL (≈ 142 µM) | 8 to 64 µg/mL | >256 µg/mL | >256 µg/mL | 256 µg/mL (≈ 567 µM) | 256 µg/mL (≈ 567 µM) | 256 µg/mL (≈ 567 µM) | 128 µg/mL (≈ 283 µM) | >256 µg/mL | >256 µg/mL | 4 µg/mL (≈ 8.86 µM) | 4 µg/mL (≈ 8.86 µM) | 32 µg/mL (≈ 70.8 µM) | 32 µg/mL (≈ 70.8 µM) | 32 µg/mL (≈ 70.8 µM) | 32 µg/mL (≈ 70.8 µM) | >256 µg/mL | >256 µg/mL | inhibition of growth at 64 μg/ml in Nutrient Broth [20]: inhibited; MIC ([12]; with inducer 100 μg/ml): 64 µg/mL (≈ 142 µM); MIC ([12]; without inducer): 64 µg/mL (≈ 142 µM); MIC ([13]; with inducer 100 μg/ml): 256 µg/mL (≈ 567 µM); MIC ([13]; without inducer): 256 µg/mL (≈ 567 µM); MIC ([14]; with inducer 100 μg/ml): 4 to 32 µg/mL; MIC ([14]; without inducer): 4 to 64 µg/mL; MIC ([15]; with inducer 100 μg/ml): 8 µg/mL (≈ 17.7 µM); MIC ([15]; without inducer): 16 µg/mL (≈ 35.4 µM); MIC ([16]; with inducer 100 μg/ml): 8 to 32 µg/mL; MIC ([16]; without inducer): 16 to 64 µg/mL; MIC ([17]; with inducer 100 μg/ml): 256 µg/mL (≈ 567 µM); MIC ([17]; without inducer): 256 µg/mL (≈ 567 µM); MIC [18]: 8 µg/mL (≈ 17.7 µM); MIC [19]: 16 µg/mL (≈ 35.4 µM) |
